Laboratory results taken from patent publication US12257290B2, “PIC1 inhibition of myeloperoxidase oxidative activity in an animal model” (priority 2018, dated 2025).
Ends that are not written are not given here.

Columns and labels:
[1] = system: complement activation in normal human serum (NHS); assay: C1-antiC1q immune complex-initiated complement activation in normal human serum (C5a, iC3b, SC5b-9 ELISA); assay type: biochemical
Method: Immune complex activation of NHS was performed as follows. NHS was stimulated with three different types of immune complexes (IC) to induce complement activation. Heat-aggregated IgG was generated by incubating intravenous immune globulin at 50 mg/ml at 63° C. for 30 min [26]. Ovalbumin-antiovalbumin immune complexes were made by incubating 0.01 ml anti-ovalbumin antibody with an equal volume of ovalbumin, at 0.25 mg/nil, at 37° C. for 30 minutes and then storing at 4° C. overnight. C1 immune complexes were formed by incubating 0.02 ml anti-C1q goat sera with 5 μl of C1, at 200 μg/ml, at 30° C. for 30 minutes and then placing in an ice water bath. For C5a and C5b-9 assays, activation of NHS was performed by pre-incubating 5% NHS with titrating concentrations of PA-dPEG24 in 0.3 ml of GVBS^++ buffer for 30 minutes at room temperature. Then […] of either heat-aggregated IVIg, or ovalbumin IC, or 5 μI of C1-antiC1q IC was added to the mix for 30 min. at 37° C. This reaction was stopped with the addition of an equal volume of GVBS^−−. For iC3b detection, 1% NHS was used and the rest of the protocol remained the same.
ELISA was performed as follows. Samples were assayed using C5a, iC3b, and SC5b-9 ELISAs. A C5a ELISA kit (R&D Systems) was used per the manufacturer's instructions. ELISAs for iC3b and SC5b-9 were performed as previously described. In iC3b ELISA, a goat anti-human C3 antibody (Complement Technology, Tyler TX) was used in for capture, a mouse anti-human iC3b antibody (Quidel, San Diego CA) for probing, and a goat anti-mouse HRP antibody for detection. In SC5b-9 ELISA, a rabbit anti-human SC5b-9 antibody (Complement Technology) was used for capture, a mouse anti-human SC5b-9 monoclonal antibody (Quidel) for probing, and a chicken anti-mouse HRP antibody for detection. Colorimetric detection was performed with TMB, stopped with H2SO4 and read on a BioTek Synergy HT plate reader at 450 nm.
Due to the importance of anti-C1q antibodies in a subset of patients with SLE, immune complexes with human C1 and anti-C1q antibodies (goat) were generated. […]

MPO = molecular target: T1, MPO (Homo sapiens, UniProt P05164); assay: MPO-mediated oxidation of TMB (FIG. 16); assay type: biochemical; conditions: FIG. 16, dose-response, increasing MPO concentrations
T1 sequence (P05164 49-745): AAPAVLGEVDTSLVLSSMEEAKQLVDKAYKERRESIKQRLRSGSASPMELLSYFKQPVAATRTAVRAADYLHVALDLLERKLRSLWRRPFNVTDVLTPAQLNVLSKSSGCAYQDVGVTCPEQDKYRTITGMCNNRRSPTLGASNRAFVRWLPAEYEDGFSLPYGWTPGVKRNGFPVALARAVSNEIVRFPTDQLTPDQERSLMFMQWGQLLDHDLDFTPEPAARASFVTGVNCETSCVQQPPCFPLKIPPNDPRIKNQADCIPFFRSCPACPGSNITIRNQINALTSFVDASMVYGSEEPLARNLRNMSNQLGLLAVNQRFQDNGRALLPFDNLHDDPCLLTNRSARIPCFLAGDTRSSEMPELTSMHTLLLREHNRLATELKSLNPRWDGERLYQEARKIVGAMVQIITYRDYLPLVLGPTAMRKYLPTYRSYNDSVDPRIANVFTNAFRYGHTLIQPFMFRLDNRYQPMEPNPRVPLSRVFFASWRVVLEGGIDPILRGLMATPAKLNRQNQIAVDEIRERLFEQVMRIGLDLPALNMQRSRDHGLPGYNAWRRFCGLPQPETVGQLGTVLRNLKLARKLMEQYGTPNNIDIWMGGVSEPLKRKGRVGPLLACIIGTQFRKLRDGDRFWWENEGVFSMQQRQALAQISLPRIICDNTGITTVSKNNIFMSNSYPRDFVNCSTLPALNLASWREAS
Text: FIG. 16 is a graph showing PIC1 dose-response inhibition of MPO-mediated oxidation of TMB for increasing concentrations of MPO.
PA-dPEG24 can inhibit the peroxidase effect of MPO in clinical CF sputum samples ex vivo as well as for purified MPO in vitro. […] PA-dPEG24 can inhibit NET formation in vitro, such as NET formation stimulated by any of phorbol 12-myristate 13-acetate (PMA), purified MPO, and immune complex-activated human sera.

Substance: IALILEPICCQERAA-dPEG24 (cysteine pairing not given here) [PA-dPEG24, 15-amino acid PEGylated peptide, 24 PEG moieties at the C-terminus]
- C1-antiC1q generation of iC3b ([1]; 2 mM PA-dPEG24, P<0.02): inhibited by 2 mM PA-dPEG24 (P<0.02) to a level similar to NHS baseline
- PA-dPEG24 concentration inhibiting C1-antiC1q generation of SC5b-9 ([1]; P<0.03): ≥ 0.13 mM
- C1-antiC1q generation of C5a in NHS ([1]; at each concentration, P<0.03): dose-dependently inhibited
- MPO-mediated oxidation of TMB (MPO): inhibits MPO-mediated oxidation
